How the values were obtained:
[1] = test system: human peripheral blood mononuclear cell (PBMC); experiment: antigen recall assay (IFNγ secretion by CMV-stimulated PBMC, ELISA); assay type: cell-based; settings: co-treatment: 1 µM HSD11B1 inhibitor + 1 µg/ml anti PD-1 (G4K), compared to anti-PD-1 or HSD11B1 inhibitor alone, 1 µg/ml CMV antigen, 50 ng/ml cortisone, 6 days, Fig. 1
From the text: Response to immunotherapy rely on critical biological steps including antigen presentation and T cell activation. Therefore, the therapeutic potential of combining immunotherapy with HSD11B1 inhibition was investigated in an antigen recall assay as described below. Antigen recall assay is the gold standard in vitro method to assess the bioactivity of immune checkpoint inhibitors because it measures at the same time the potential of antigen presenting cells to activate T cell and the actual T cell activation, taking into account thereby the two critical mechanisms required for an optimal response to immunotherapy. The level of IFNγ secreted in this human immune cell-based assay is considered as a good indicator of the T cells activation to immunomodulatory molecules. Cryopreserved human peripheral blood mononuclear cell (PBMC) isolated from cytomegalovirus (CMV) positive heathy donors were thawed in a 37°C water bath and seeded in round bottom 96 well plates at 2 X 10^5 cells/well in 150 µL final volume of RPMI media supplemented with 10% fetal bovin serum, 1% non-essential amino acids, 0.01M Hepes, 1% Penicilin/Streptomycin, 1% L-glutamine and 50 ng/ml cortisone). […] Plates were incubated at 37°C, 6% CO2. After 6 days, supernatants were assayed for IFNγ by ELISA (Biolegend).

[2] = test system: GFP-expressing Renca cells; experiment: murine T cell-mediated tumor cell-killing assay (growth of GFP Renca cells, Incucyte imaging); assay type: cell-based; settings: combination: 10 µM HSD11B1 inhibitor + anti-PD-1 (mouse), compared to single treatments; 200 ng/ml 11-DHC; BMDCs, OT-I CD8 T cells, SIINFEKL loaded GFP Renca cells; Fig. 2
Description: Another critical biological mechanism required for an optimal response to immunotherapy of cancer is the capacity of T cells to kill the tumor target cells. The therapeutic potential of combining immunotherapy with HSD11B1 inhibition for the treatment of cancer was therefore assessed in a murine T cell-mediated tumor cell-killing assay. Wild type C57BL/6J murine bone marrow progenitors cells were maintained with 20 ng/ml GMCSF (Peprotech) to induce differentiation into bone marrow derived dendritic cells (BMDCs) for 6 days. At day 6, 2 X 10^4 BMDCs/well together with 2 X 10^3 Renca tumor cells/well were seeded in flat bottom 96 well plate in RPMI 1640 supplemented with 10% FBS, 1% Penicillin/streptomycin, 1% L-glutamine, […] betamercaptoethanol and 0.5% of sodium pyruvate, 32 ng/ml R848 (Invivogen) and 25 µg/ml ovalbumin (Invivogen). After 24 hours, cell supernatant was removed and 1x10^5 OT-I CD8 T cells/well were added in very low endotoxin RPMI 1640 medium supplemented with 10% fetal bovine serum, 1% L-glutamine, 1% penicillin-streptomycin, 1% sodium-pyruvate, 1% glutamine, 1%, non-essential amino acids and […] beta-mercaptoethanol. After 24 hours, 5x10^3 H2kb-recombined; SEQ ID NO: 1 […] (Invivogen) loaded-GFP-expressing Renca cells/well were added. The growth of GFP Renca cells was measured and quantified in real time by cell imaging using the Incucyte technology. […]

| SMILES | level on IFNγ [1] | growth of tumor cells [2] |
| --- | --- | --- |
| O=C(O)CC1CC2(CCN(C(=O)NC3C4CC5CC(C4)CC3C5)CC2)c2c(Br)cccc21 (racemic) [10J, (+/-)-2-(7-bromo-1'-((2-adamantyl)carbamoyl)-2,3-dihydrospiro [indene-1,4'-piperidine]-3-yl) acetic acid] | significantly increased |  |
| CC(C)(O)c1cccn2c(C3(c4ccc(Cl)cc4)CC3)nnc12 [BMS-823778, 2-[3-[1-(4-chlorophenyl)cyclopropyl]-[1,2,4]triazolo[4,3-a]pyridin-8-yl]propan-2-ol] | significantly increased | inhibited the growth of tumor cells more efficiently than the single treatments |
| CC1(C)[C@@H](OC(=O)CCC(=O)O)CC[C@]2(C)[C@H]3C(=O)C=C4[C@@H]5C[C@@](C)(C(=O)O)CC[C@]5(C)CC[C@@]4(C)[C@]3(C)CC[C@@H]12 [carbenoxolone, (2S,4aS,6aR,6aS,6bR,8aR,10S,12aS,14bR )-10-(3-carboxypropanoyloxy)-2,4a,6a,6b,9,9,12a-heptamethyl-13-oxo-3,4,5,6,6a,7,8,8a,10,11,12,14b-dodecahydro-1H-picene-2-carboxylic acid] | significantly increased |  |

— patent EP3878446A1, “HSD11B1 INHIBITORS FOR USE IN IMMUNOTHERAPY AND USES THEREOF” (UNIVERSITE DE GENEVE, priority 2020, dated 2021)
